Data as given in patent US9101161B2, “High-potency sweetener composition with phytoestrogen and compositions sweetened therewith” (The Coca-Cola Company, priority 2006, dated 2015).

Legend:
[1] = Sensory evaluation of sweetness linger, Example Set H (REBA in phosphoric acid solution pH 2.4-2.5); format: in vivo; set-up: key: 0=no sweetness linger; 1=very slight sweetness linger; 2=slight sweetness linger; 3=moderate sweetness linger; 4=moderately high sweetness linger; 5 high sweetness linger; settings: 500 ppm REBA (H41: 360 ppm) in carbon-treated water, phosphoric acid (75%) to pH 2.4-2.5, plus additive; scale 0-5
[2] = Sensory evaluation of sweetness linger, Example Set G (REBA in citric acid/potassium citrate composition); format: in vivo; set-up: key: 0=no sweetness linger; 1=very slight sweetness linger; 2=slight sweetness linger; 3=moderate sweetness linger; 4=moderately high sweetness linger; 5 high sweetness linger; settings: for sweetness linger: 400 ppm REBA in citric acid/potassium citrate composition equivalent to diet lemon-lime beverage, plus additive, expert panel, scale 0-5, sweetness 3-4 min after water rinse; for Sweetness Linger rating defined for controls: defined by the protocol, sucrose, 500 ppm REBA control sample
Description: Sensory evaluation of the samples prepared in Example Set G was carried out under the following protocol, similar to that described hereinabove. In this test protocol, none of the samples were swallowed. All samples were expectorated and the mouth was rinsed with water after the tasting, Immediately upon sensing maximal sweetness, the sample was expectorated, the mouth was rinsed with water and the rate of sweetness decay (“Sweetness Linger”) was measured, where attention was focused on the sweetness 3-4 min after the water rinse. After sample tasting was complete, a salty oyster cracker was chewed followed by a water rinse, and at least 5 minutes followed before tasting the next sample. The sweetness linger was rated by a panel of experts in the sensory evaluation of foods and beverages using the following scale: 0=no sweetness linger, 1=very slight sweetness linger, 2=slight sweetness linger, 3=moderate sweetness linger, 4=moderately high sweetness linger, 5 high sweetness linger.
The “Sweetness Linger” rating for sucrose observed by this protocol is defined as 0. The Sweetness Linger of a 500 ppm of REBA control sample is defined as 5. Experimental samples were tasted by the same protocol, always allowing sufficient time between samples to ensure re-equilibration of the sensory system. Re-tasting of control samples during the course of the experiment was allowed and encouraged.
The comparison taste test was performed between two controls and addition of sweet taste improving additive on the onset and/or sweetness linger.
The effects of formulation change on the sweetness linger of 400 ppm REBA (equivalent to 8 g sucrose) in a citric acid/potassium citrate composition equivalent to that in a diet lemon-lime beverage were evaluated. The sweetness linger rating of this solution was determined to be 5.
8 g of sugar was dissolved in 100 ml of citrate buffer. The sweetness linger rating of this control sample was determined to be 0.

[3] = Sweetness level as sucrose equivalent; settings: 400 ppm REBA
[4] = Rate of dissolution in H2O at 25° C. of rebaudioside A polymorph and amorphous forms; format: physicochemical
[5] = format: physicochemical
Description: A solution of rebaudioside A (>97% pure by HPLC) was prepared in double distilled water (12.5 gm in 50 mL, 25% concentration) by stirring the mixture at 40° C. for 5 minutes. An amorphous form of rebaudioside A was formed by immediately using the clear solution for spray drying with the Lab-Plant spray drier SD-04 instrument (Lab-Plant Ltd., West Yorkshire, U.K.). The solution was fed through the feed pump into the nozzle atomizer which atomized it into a spray of droplets with the help of a constant flow of nitrogen/air. […] This dry powder (11-12 g, H2O, 6.74%) was discharged continuously from the drying chamber and was collected in a bottle.

| Molecule | Rate of dissolution in H2O at 25° C. ([4]; H2O, 25° C.) | Rate of dissolution in H2O at 25° C. ([4]; grade in words) | solubility in water at room temperature [5] [%] | sweetness linger [1] | sweetness linger [2] | Sweetness Linger rating defined for controls [2] | sucrose equivalent [3] [g sucrose] |
| --- | --- | --- | --- | --- | --- | --- | --- |
| OC[C@H]1O[C@@](CO)(O[C@H]2O[C@H](CO)[C@@H](O)[C@H](O)[C@H]2O)[C@@H](O)[C@@H]1O [sucrose] | – | – | – | 0 | 0 | 0 | – |
| rebaudioside A | – | – | – | 5 | 5 | 5 | 8 |
| rebaudioside A [Form 1] | (<0.2%/60 %/60 minutes | Very low | – | – | – | – | – |

More lines, main results first:

| Rate of dissolution in H2O at 25° C. ([4]; H2O, 25° C.) | Rate of dissolution in H2O at 25° C. ([4]; grade in words) | solubility in water at room temperature [5] [%] | Molecule | sweetness linger [1] | sweetness linger [2] | Sweetness Linger rating defined for controls [2] | sucrose equivalent [3] [g sucrose] |
| --- | --- | --- | --- | --- | --- | --- | --- |
| (<30%/5 %/5 minutes | Intermediate | – | rebaudioside A [Form 2] | – | – | – | – |
| > 30 %/5 minutes | High | – | rebaudioside A [Form 3] | – | – | – | – |
| > 35 %/5 minutes | High | > 35.0 | rebaudioside A [Form 4] | – | – | – | – |
